The test system of the test is VEGF high-expressing pancreatic cancer cells (KP-1/VEGF). Description: Antitumor activity on KP-1/VEGF cells in subcutaneous xenograft models. Type of test: in vivo, mouse. Conditions: 60 mg/kg/day, oral twice a day, 2 weeks, Balb/c (nu/nu) mice. Here is the method:
VEGF high-expressing pancreatic cancer cells (KP-1/VEGF) suspended in PBS at a concentration of 1×10^7 cells/ml were transplanted under the right flank skin of 6-week-old female Balb/c (nu/nu) mice in a volume of 0.1 ml. When the tumor volume reached approximately 100 mm^3, the test substance was orally administered twice a day over a period of 2 weeks with a schedule of 5 days per week. The test substance was suspended in 0.5% methyl cellulose for an administered volume of 0.1 ml/10 g body weight. The tumor size was measured twice a week using a micrometer caliper. The tumor volume was determined by measuring the long and short diameters of the tumor with a micrometer caliper, and calculating ½×(long diameter×short diameter×short diameter). The experiment was conducted using 10 mice in the control (solvent-administered) group and 5 mice in each test substance-administered group.

The structures appear in SMILES notation.

With `CNC(=O)n1ccc2cc(Oc3ccnc(NC(=O)N4CCC(N5CCCC5)CC4)c3)ccc21` [Example 46, N1-Methyl-5-(2-(((4-(pyrrolidin-1-yl)piperidin-1-yl)carbonyl)amino)pyridin-4-yloxy)-1H-1-indolecarboxamide], the “proportion of the tumor volume to that of control” value is listed as 60.0%.
